Results on three compounds are retold here after PMC5762913, “Probing the molecular basis of hERG drug block with unnatural amino acids” (Scientific Reports, 2018).

Data set [1] relates to hERG S631A. The conditions noted are these: S631A mutation which abolishes inactivation, versus WT; cited from earlier work.
Data set [2] concerns hERG Tyr652 and Phe656. As to the kind of experiment: Assessment of cation-π interaction in hERG drug block across fluorinated Phe series. The conditions noted are these: judged from IC50 across Y652 and F656 fluorinated Phe series. On the technique in general: Block of hERG is tested as a sign of cardiac risk.
Source text: Testing whether a cation-π relationship occurs at an aromatic residue can be accomplished by measuring the impact of substitution with a series of fluorinated aromatic amino acids. Successive fluorinations of aromatic side chains yield additive reductions in ability to donate π electrons to cation-π interactions[30]. Through the use of nonsense suppression, we incorporated singly and doubly fluorinated phenylalanine derivatives at both Tyr652 and Phe656. These UAA also have the advantage of providing a sterically conservative means of studying the specific nature of interactions of individual residues. If hERG drug interactions depend largely on cation-π binding interactions at sites Tyr652 and Phe656, then successive fluorinations at these sites should decrease drug affinity in a linear manner[30].
This protocol is repeated in successive sweeps as either control or drug-containing solutions flow into the bath chamber and over the oocyte. […] The steady state current at −50 mV reached at each drug concentration was normalized to the steady state current at −50 mV with no drug. From these normalized values, a concentration-response curve was generated and fit with a Hill equation. IC50 and Hill coefficient values were generated from each Hill fit. […]
The test system of data set [3] is nicotinic receptor α-subunit Trp-149 doubly fluorinated. The arrangement: method as in PMID 9770444. The note with it: doubly fluorinating Trp-149 in the α-subunit; cited from earlier work.

For the compound `CN(CCOc1ccc(NS(C)(=O)=O)cc1)CCc1ccc(NS(C)(=O)=O)cc1` [Dofetilide, dofetilide], the potency of block result in data set [1] is listed as “reduced”. For the same compound, in data set [2], the “Cation – π behaviour?” value was “No”.
`C=C[C@H]1C[N@@]2CC[C@H]1C[C@@H]2[C@@H](O)c1ccnc2ccc(OC)cc12` [Quinidine, quinidine]: the potency of block entry in data set [1] is “reduced”. Also, in data set [2], the “Cation – π behaviour?” value was “No”.
For the compound `CC(=O)OCC[N+](C)(C)C` [acetyl choline], the reduction of potency entry in data set [3] is given as “nearly an order of magnitude”.
